Experimental findings from PMC7839254 (FASEB journal : official publication of the Federation of …, 2021) are described below.

Common to all, as to assay: isothermal titration calorimetry
What all share (format): binding
For orientation: In ITC the heat of successive injections is recorded.

Experiment [1] has as its target T1, human DIPP1 (DIPP1 1-148) (Homo sapiens, UniProt O95989).
T1 sequence (O95989 1-148): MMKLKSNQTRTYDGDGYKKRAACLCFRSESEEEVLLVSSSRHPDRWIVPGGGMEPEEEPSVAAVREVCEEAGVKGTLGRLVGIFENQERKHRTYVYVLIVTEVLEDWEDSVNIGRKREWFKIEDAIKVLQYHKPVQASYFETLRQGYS

Experiment [2] concerns the target T2, human DIPP1 (DIPP1 1-148) (Homo sapiens, UniProt O95989, K18A).
T2 sequence (O95989 1-148 K18A): T1 sequence (O95989 1-148) with K18A

In experiment [3] the target is T3, human DIPP1 (DIPP1 1-148) (Homo sapiens, UniProt O95989, R41A).
T3 sequence (O95989 1-148 R41A): T1 sequence (O95989 1-148) with R41A

The target of experiment [4] is T4, human DIPP1 (DIPP1 1-148) (Homo sapiens, UniProt O95989, R45A).
T4 sequence (O95989 1-148 R45A): T1 sequence (O95989 1-148) with R45A

For experiment [5], the target named is T5, human DIPP1 (DIPP1 1-148) (Homo sapiens, UniProt O95989, H42A).
T5 sequence (O95989 1-148 H42A): T1 sequence (O95989 1-148) with H42A

The target in experiment [6] is T6, human DIPP1 (DIPP1 1-148) (Homo sapiens, UniProt O95989, H42A/R45A).
T6 sequence (O95989 1-148 H42A/R45A): T1 sequence (O95989 1-148) with H42A, R45A

Substitutions are numbered along the chain they refer to.

`O=P(O)(O)O[C@@H]1[C@@H](OP(=O)(O)O)[C@H](OP(=O)(O)OP(=O)(O)O)[C@@H](OP(=O)(O)O)[C@H](OP(=O)(O)OP(=O)(O)O)[C@@H]1OP(=O)(O)O` [1,5-InsP8, 1,5-bis-diphosphoinositol 2,3,4,6-tetrakisphosphate]: the Kd (in general, the free concentration of one partner at which half of the binding sites on the other are occupied at equilibrium, for simple one-to-one binding) is 158 ± 9 nM in experiment [1]; 4990 ± 620 nM in experiment [2]; 460 ± 50 nM in experiment [3]; 360 ± 50 nM in experiment [4]; 510 ± 100 nM in experiment [5]; 1060 ± 90 nM in experiment [6].
For the compound `O=P(O)(O)O[C@@H]1[C@@H](OP(=O)(O)OP(=O)(O)O)[C@H](OP(=O)(O)O)[C@@H](OP(=O)(O)O)[C@@H](O)[C@H]1OP(=O)(O)O` [5-PP-InsP4, 5-diphosphoinositol 1,3,4,6-tetrakisphosphate], the Kd in experiment [1] is 251 ± 31 nM.
